Values quoted from earlier work in patent publication US20220088024A1, “METHODS FOR TREATING CANCER USING TOZADENANT” (Biotie Therapies, Inc., priority 2018, published 2022).

System: mouse tumor models
Details: cited from earlier work

| Compound | Efficacy in mouse tumor models (alone and in combination with an anti-PD-1 agent (Willingham et al. 2016)) | Activity in a mouse tumor model (monotherapy (Hammerl et al. 2016)) |
| --- | --- | --- |
| Cc1ccc(-c2nc(N)nc3c2nnn3Cc2cccc(CO[C@H]3CCOC3)n2)o1 [CPI444] | effective |  |
| Nc1nc2c(cnn2CCc2ccccc2)c2nc(-c3ccco3)nn12 [SCH 58261] |  | demonstrated activity as monotherapy |
